Patent US20260048051A1, “TREATMENT OF INFLAMMATORY BOWEL DISEASE” (Atomwise Inc., priority 2024, published 2026)

molecular target: T1, TYK2-JH2 (Homo sapiens, UniProt P29597); assay: TYK2-JH2 HTRF binding assay (ligand efficiency); details: calculated from binding-assay IC50 (Equation 1)
T1 construct: TYK JH2 enzyme mix (ChemPartner: CP20210818A-BV); purchased ChemPartner CP20210818A-BV
Description: The following example describes the TYK2-JH2 HTRF binding assay used to determine the ligand efficiency of the TYK2 inhibitors.
To calculate ligand efficiency, Equation 1 is applied: […]
in which IC50 comes from the binding assay used to determine compound potency.
TYK JH2 enzyme mix (ChemPartner: CP20210818A-BV), tracer (ChemPartner: CP-0029472-051) and mAb Anti-6HIS Tb cryptate Gold (Cisbio: Cat No. 61HI2TLA) mix were prepared in assay buffer (10 mM MgCl2, 20 mM HEPES pH 7.5, 0.01% Triton X-100, 1 mM DTT). Compounds diluted in DMSO (Final Concentrations 0.1 to 0.000005 [μM]) and enzyme mix (0.5 nM Final Concentration) were added to 384 well plates, briefly centrifuged and incubated at room temperature for 10 minutes. After incubation, tracer mix (Tracer-35 nM final concentration); (MAb Anti-6HIS Tb cryptate Gold-0.5× final)) was added, briefly centrifuged then incubate at room temperature 60 minutes. After incubation, plates were read by Envision TR-FRET (Ex340/Em495/520) protocol (PerkinElmer-Envision 2104 multilabel plate reader).

T1 sequence (P29597 589-875 limits assumed): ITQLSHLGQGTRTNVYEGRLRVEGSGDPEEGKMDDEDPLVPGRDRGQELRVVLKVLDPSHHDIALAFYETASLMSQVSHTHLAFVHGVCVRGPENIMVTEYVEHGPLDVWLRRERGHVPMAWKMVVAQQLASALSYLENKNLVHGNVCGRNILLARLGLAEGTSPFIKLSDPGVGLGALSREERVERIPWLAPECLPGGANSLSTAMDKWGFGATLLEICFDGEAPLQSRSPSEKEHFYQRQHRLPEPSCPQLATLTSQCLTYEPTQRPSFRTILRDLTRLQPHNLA

SMILES	Ligand Efficiency
CS(=O)(=O)c1cccnc1Nc1cc(Nc2ccc([C@@H](N3CC4(COC4)C3)C(F)(F)F)cn2)ncn1 [Compound 16, (R)—N^4-(3-(methylsulfonyl)pyridin-2-yl)-N^6-(5-(2,2,2-trifluoro-1-(2-oxa-6-azaspiro[3.3]heptan-6-yl)ethyl)pyridin-2-yl)pyrimidine-4,6-diamine]	†† (††: 0.37-0.39)
CS(=O)(=O)c1cccnc1Nc1cc(Nc2cccc(C(F)(F)F)n2)ncn1 [Compound 19, N^4-(3-(methylsulfonyl)pyridin-2-yl)-N^6-(6-(trifluoromethyl)pyridin-2-yl)pyrimidine-4,6-diamine]	††† (†††: >0.39)
C[C@H]1CN(C)CCN1c1ccc(Nc2cc(Nc3ncccc3S(C)(=O)=O)ncn2)nc1 [Compound 20, (S)—N^4-(5-(2,4-dimethylpiperazin-1-yl)pyridin-2-yl)-N^6-(3-(methylsulfonyl)pyridin-2-yl)pyrimidine-4,6-diamine]	††† (†††: >0.39)
CC1(Nc2ccc(Nc3cc(Nc4ncccc4S(C)(=O)=O)ncn3)nc2)COC1 [Compound 21, N^4-(5-((3-methyloxetan-3-yl)amino)pyridin-2-yl)-N^6-(3-(methylsulfonyl)pyridin-2-yl)pyrimidine-4,6-diamine]	††† (†††: >0.39)
CC(c1ccc(Nc2cc(Nc3ncccc3S(C)(=O)=O)ncn2)nc1)N1CC(F)C1 (stereo not shown) [Compound 22, N^4-(5-(1-(3-fluoroazetidin-1-yl)ethyl)pyridin-2-yl)-N^6-(3-(methylsulfonyl)pyridin-2-yl)pyrimidine-4,6-diamine]	††† (†††: >0.39)
Cc1cc(Nc2cc(Nc3ncccc3S(C)(=O)=O)ncn2)ncc1NC1(C)COC1 [Compound 23, N^4-(4-methyl-5-((3-methyloxetan-3-yl)amino)pyridin-2-yl)-N-(3-(methylsulfonyl)pyridin-2-yl)pyrimidine-4,6-diamine]	††† (†††: >0.39)
CS(=O)(=O)c1cccnc1Nc1cc(Nc2ccc(N3CCC4(CCO4)CC3)cn2)ncn1 [Compound 24, N^4-(5-(1-oxa-7-azaspiro[3.5]nonan-7-yl)pyridin-2-yl)-N^6-(3-(methylsulfonyl)pyridin-2-yl)pyrimidine-4,6-diamine]	†† (††: 0.37-0.39)
C[C@@H](c1ccc(Nc2cc(Nc3ncccc3S(C)(=O)=O)ncn2)nc1)N1C[C@H]2COC[C@H]2C1 [Compound 25, N^4-(3-(methylsulfonyl)pyridin-2-yl)-N^6-(5-(1-((3aR,6aS)-tetrahydro-1H-furo[3,4-c]pyrrol-5(3H)-yl)ethyl)pyridin-2-yl)pyrimidine-4,6-diamine]	††† (†††: >0.39)
CC(NC1CCOC1)c1ccc(Nc2cc(Nc3ccccc3S(C)(=O)=O)ncn2)nc1 (stereo not shown) [Compound 26, N^4-(2-(methylsulfonyl)phenyl)-N^6-(5-(1-(tetrahydrofuran-3-ylamino)ethyl)pyridin-2-yl)pyrimidine-4,6-diamine]	†† (††: 0.37-0.39)
CS(=O)(=O)c1ccccc1Nc1cc(Nc2ccc3c(n2)CCCC3N2CC3(CCOCC3)C2)ncn1 (stereo not shown) [Compound 27, N^4-(5-(7-oxa-2-azaspiro[3.5]nonan-2-yl)-5,6,7,8-tetrahydroquinolin-2-yl)-N^6-(2-(methylsulfonyl)phenyl)pyrimidine-4,6-diamine]	† (†: < 0.37)
CS(=O)(=O)c1ccccc1Nc1cc(Nc2ccc(CNC3CCOC3)cn2)ncn1 (stereo not shown) [Compound 28, N^4-(2-(methylsulfonyl)phenyl)-N^6-(5-((tetrahydrofuran-3-ylamino)methyl)pyridin-2-yl)pyrimidine-4,6-diamine]	†† (††: 0.37-0.39)
C[C@@H](c1ccc(Nc2cc(Nc3ncccc3S(C)(=O)=O)ncn2)nc1)N1CCCC12CCOCC2 [Compound 29, (S)—N^4-(5-(1-(8-oxa-1-azaspiro[4.5]decan-1-yl)ethyl)pyridin-2-yl)-N^6-(3-(methylsulfonyl)pyridin-2-yl)pyrimidine-4,6-diamine]	†† (††: 0.37-0.39)
C[C@H](c1ccc(Nc2cc(Nc3ncccc3S(C)(=O)=O)ncn2)nc1)N1CCC2(CCOCC2)C1 [Compound 30, (R)—N^4-(5-(1-(8-oxa-2-azaspiro[4.5]decan-2-yl)ethyl)pyridin-2-yl)-N^6-(3-(methylsulfonyl)pyridin-2-yl)pyrimidine-4,6-diamine]	†† (††: 0.37-0.39)
C[C@@H](c1ccc(Nc2cc(Nc3ncccc3S(C)(=O)=O)ncn2)nc1)N1CC2(CCOC2)C1 [Compound 32, (S)—N^4-(5-(1-(6-oxa-2-azaspiro[3.4]octan-2-yl)ethyl)pyridin-2-yl)-N^6-(3-(methylsulfonyl)pyridin-2-yl)pyrimidine-4,6-diamine]	††† (†††: >0.39)
CC(C)(c1ccc(Nc2cc(Nc3ncccc3S(C)(=O)=O)ncn2)nc1)N1CC2(CCOCC2)C1 [Compound 33, N^4-(5-(2-(7-oxa-2-azaspiro[3.5]nonan-2-yl)propan-2-yl)pyridin-2-yl)-N^6-(3-(methylsulfonyl)pyridin-2-yl)pyrimidine-4,6-diamine]	†† (††: 0.37-0.39)
CC(c1ccc(Nc2cc(Nc3ncccc3S(C)(=O)=O)ncn2)nc1)N1CC2(CC(C(F)F)C2)C1 (stereo not shown) [Compound 34, N^4-(5-(1-(6-(difluoromethyl)-2-azaspiro[3.3]heptan-2-yl)ethyl)pyridin-2-yl)-N^6-(3-(methylsulfonyl)pyridin-2-yl)pyrimidine-4,6-diamine]	†† (††: 0.37-0.39)

SMILES	Ligand Efficiency
CC(NC1CC(F)(F)C1)c1ccc(Nc2cc(Nc3ncccc3S(C)(=O)=O)ncn2)nc1 (stereo not shown) [Compound 35, N^4-(5-(1-(3,3-difluorocyclobutylamino)ethyl)pyridin-2-yl)-N^6-(3-(methylsulfonyl)pyridin-2-yl)pyrimidine-4,6-diamine]	††† (†††: >0.39)
CC1(CNc2ccc(Nc3cc(Nc4ncccc4S(C)(=O)=O)ncn3)nc2)COC1 [Compound 36, N^4-(5-(((3-methyloxetan-3-yl)methyl)amino)pyridin-2-yl)-N^6-(3-(methylsulfonyl)pyridin-2-yl)pyrimidine-4,6-diamine]	††† (†††: >0.39)
CS(=O)(=O)c1cccnc1Nc1cc(Nc2ccc(NC3CC(F)(F)C3)cn2)ncn1 [Compound 37, N^4-(5-(3,3-difluorocyclobutylamino)pyridin-2-yl)-N^6-(3-(methylsulfonyl)pyridin-2-yl)pyrimidine-4,6-diamine]	††† (†††: >0.39)
CS(=O)(=O)c1cccnc1Nc1cc(Nc2ccc(C(=O)NC3CC(F)(F)C3)cn2)ncn1 [Compound 38, N-(3,3-difluorocyclobutyl)-6-(6-(3-(methylsulfonyl)pyridine-2-ylamino)pyrimidin-4-ylamino)nicotinamide]	††† (†††: >0.39)
CC(C)(NC1COC1)c1ccc(Nc2cc(Nc3ccccc3S(C)(=O)=O)ncn2)nc1 [Compound 39, N^4-(2-(methylsulfonyl)phenyl)-N^6-(5-(2-(oxetan-3-ylamino)propan-2-yl)pyridin-2-yl)pyrimidine-4,6-diamine]	†† (††: 0.37-0.39)
CS(=O)(=O)c1ccccc1Nc1cc(Nc2ccc(C3(NC4COC4)CC3)cn2)ncn1 [Compound 41, N^4-(2-(methylsulfonyl)phenyl)-N^6-(5-(1-(oxetan-3-ylamino)cyclopropyl)pyridin-2-yl)pyrimidine-4,6-diamine]	†† (††: 0.37-0.39)
CS(=O)(=O)c1ccccc1Nc1cc(Nc2ccc(N3CCOCC3)cn2)ncn1 [Compound 42, N^4-(2-(methylsulfonyl)phenyl)-N^6-(5-morpholinopyridin-2-yl) pyrimidine-4,6-diamine]	††† (†††: >0.39)
CS(=O)(=O)c1ccccc1Nc1cc(Nc2ccc(C(=O)NC3CCOC3)cn2)ncn1 (stereo not shown) [Compound 43, 6-(6-(2-(methylsulfonyl)phenylamino)pyrimidin-4-ylamino)-N-(tetrahydrofuran-3-yl)nicotinamide]	†† (††: 0.37-0.39)
Cc1ccnc(Nc2cc(Nc3ccccc3S(C)(=O)=O)ncn2)c1 [Compound 44, N^4-(4-methylpyridin-2-yl)-N^6-(2-(methylsulfonyl)phenyl) pyrimidine-4,6-diamine]	††† (†††: >0.39)
Cc1ccnc(Nc2cc(Nc3ccccc3C(N)=O)ncn2)c1 [Compound 45, 2-((6-((4-methylpyridin-2-yl)amino)pyrimidin-4-yl)amino) benzamide]	††† (†††: >0.39)
Cc1cccc(Nc2cc(Nc3ccccc3C(N)=O)ncn2)n1 [Compound 46]	††† (†††: >0.39)
Cc1cnnc(Nc2cc(Nc3ccccc3C(N)=O)ncn2)c1 [Compound 47, 2-((6-((5-methylpyridazin-3-yl)amino)pyrimidin-4-yl)amino) benzamide]	††† (†††: >0.39)
Cc1nccc(Nc2cc(Nc3ccccc3C(N)=O)ncn2)n1 [Compound 48, 2-((6-((2-methylpyrimidin-4-yl)amino)pyrimidin-4-yl)amino) benzamide]	††† (†††: >0.39)
Cc1cncc(Nc2cc(Nc3ccccc3C(N)=O)ncn2)n1 [Compound 49, 2-(6-(6-methylpyrazin-2-ylamino)pyrimidin-4-ylamino)benzamide]	††† (†††: >0.39)
Cc1cccc(Nc2cc(Nc3cccnc3C(N)=O)ncn2)n1 [Compound 50, 3-((6-((6-methylpyridin-2-yl)amino)pyrimidin-4-yl)amino) picolinamide]	††† (†††: >0.39)
